Here are results for two compounds from ChEMBL document CHEMBL5523701, “Structure-based discovery of small molecule inhibitors of FKBP51-Hsp90 protein-protein interaction” (Eur J Med Chem, 2024).

In test [1] the target is T1, Peptidyl-prolyl cis-trans isomerase FKBP5 (Homo sapiens, UniProt Q13451).
T1 sequence (Q13451 whole entry): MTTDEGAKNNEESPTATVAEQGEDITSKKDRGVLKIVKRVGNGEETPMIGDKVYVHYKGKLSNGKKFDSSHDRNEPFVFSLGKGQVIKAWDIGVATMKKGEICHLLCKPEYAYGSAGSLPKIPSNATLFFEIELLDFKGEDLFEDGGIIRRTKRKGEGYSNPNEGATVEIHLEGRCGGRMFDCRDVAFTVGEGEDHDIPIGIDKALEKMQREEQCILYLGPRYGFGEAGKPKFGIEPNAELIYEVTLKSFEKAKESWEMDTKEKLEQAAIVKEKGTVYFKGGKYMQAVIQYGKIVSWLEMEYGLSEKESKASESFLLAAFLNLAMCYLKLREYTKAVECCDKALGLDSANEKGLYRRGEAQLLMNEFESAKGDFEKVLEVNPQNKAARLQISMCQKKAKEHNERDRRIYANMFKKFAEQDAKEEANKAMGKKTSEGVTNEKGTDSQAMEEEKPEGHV
In words: Inhibition of GST-tagged human FKBP51 expressed in Escherichia coli BL21 (DE3) using NH2-EDASRMEEVD-COOH peptide as substrate preincubated for 15 mins followed by substrate addition measured after 15 mins by Alpha Screen assay.

Test [2] has as its target T2, Serine/threonine-protein phosphatase 5 (Homo sapiens, UniProt P53041).
T2 sequence (P53041 whole entry): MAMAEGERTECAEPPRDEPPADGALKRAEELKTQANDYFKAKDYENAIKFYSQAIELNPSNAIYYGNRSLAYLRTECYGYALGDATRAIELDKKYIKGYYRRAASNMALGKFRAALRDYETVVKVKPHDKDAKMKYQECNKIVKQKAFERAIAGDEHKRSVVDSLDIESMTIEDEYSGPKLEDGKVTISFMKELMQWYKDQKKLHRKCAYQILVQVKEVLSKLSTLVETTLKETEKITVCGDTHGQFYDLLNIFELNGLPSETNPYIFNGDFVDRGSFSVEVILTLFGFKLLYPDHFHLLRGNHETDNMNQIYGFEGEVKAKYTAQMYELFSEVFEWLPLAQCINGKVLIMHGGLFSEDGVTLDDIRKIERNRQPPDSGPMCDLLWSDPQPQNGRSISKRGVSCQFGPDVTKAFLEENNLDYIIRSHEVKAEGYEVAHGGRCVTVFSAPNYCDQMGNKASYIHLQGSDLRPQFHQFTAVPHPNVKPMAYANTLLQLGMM
In words: Inhibition of GST-tagged human PP5 expressed in Escherichia coli BL21 (DE3) using NH2-EDASRMEEVD-COOH peptide as substrate preincubated for 15 mins followed by substrate addition measured after 15 mins by Alpha Screen assay.

For test [3], the target named is T3, Mitochondrial import receptor subunit TOM70 (Homo sapiens, UniProt O94826).
T3 sequence (O94826 whole entry): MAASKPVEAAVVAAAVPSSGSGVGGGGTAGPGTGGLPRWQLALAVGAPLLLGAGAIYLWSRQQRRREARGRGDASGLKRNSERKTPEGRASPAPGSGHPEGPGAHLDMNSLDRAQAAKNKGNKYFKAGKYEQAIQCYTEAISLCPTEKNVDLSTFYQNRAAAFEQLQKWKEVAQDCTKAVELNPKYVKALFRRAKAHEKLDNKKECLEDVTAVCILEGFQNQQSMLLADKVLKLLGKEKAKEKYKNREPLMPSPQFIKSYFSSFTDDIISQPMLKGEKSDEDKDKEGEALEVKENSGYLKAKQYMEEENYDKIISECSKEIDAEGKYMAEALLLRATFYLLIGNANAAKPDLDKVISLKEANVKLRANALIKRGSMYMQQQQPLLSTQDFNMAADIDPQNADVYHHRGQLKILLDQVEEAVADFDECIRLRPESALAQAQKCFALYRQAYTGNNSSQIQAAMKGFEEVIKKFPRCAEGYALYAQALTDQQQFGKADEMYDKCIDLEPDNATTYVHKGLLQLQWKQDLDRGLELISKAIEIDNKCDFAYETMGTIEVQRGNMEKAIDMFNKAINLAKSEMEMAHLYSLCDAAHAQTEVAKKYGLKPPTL
In words: Inhibition of GST-tagged human TOM70 expressed in Escherichia coli BL21 (DE3) using NH2-EDASRMEEVD-COOH peptide as substrate preincubated for 15 mins followed by substrate addition measured after 15 mins by Alpha Screen assay.

The target in test [4] is T4, Peptidyl-prolyl cis-trans isomerase FKBP4 (Homo sapiens, UniProt Q02790).
T4 sequence (Q02790 whole entry): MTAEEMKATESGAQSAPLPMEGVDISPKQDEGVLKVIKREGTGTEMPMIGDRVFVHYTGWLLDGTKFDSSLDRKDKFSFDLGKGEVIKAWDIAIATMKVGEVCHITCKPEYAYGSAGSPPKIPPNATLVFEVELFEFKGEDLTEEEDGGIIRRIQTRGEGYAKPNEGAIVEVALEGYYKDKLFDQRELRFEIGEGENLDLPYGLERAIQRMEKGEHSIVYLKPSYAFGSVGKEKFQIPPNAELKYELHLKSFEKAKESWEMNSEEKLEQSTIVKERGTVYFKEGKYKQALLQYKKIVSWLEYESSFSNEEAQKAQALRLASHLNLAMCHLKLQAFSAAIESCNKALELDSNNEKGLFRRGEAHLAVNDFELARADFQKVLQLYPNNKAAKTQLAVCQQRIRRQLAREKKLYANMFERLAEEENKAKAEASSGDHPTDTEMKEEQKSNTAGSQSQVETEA
In words: Binding affinity to GST-tagged human FKBP52 expressed in Escherichia coli BL21 (DE3) immobilized in CM7 sensor chip assessed as equilibrium dissociation constant by SPR analysis.

Test [5] has as its target T5, Aryl-hydrocarbon-interacting protein-like 1 (Homo sapiens, UniProt Q9NZN9).
T5 sequence (Q9NZN9 whole entry): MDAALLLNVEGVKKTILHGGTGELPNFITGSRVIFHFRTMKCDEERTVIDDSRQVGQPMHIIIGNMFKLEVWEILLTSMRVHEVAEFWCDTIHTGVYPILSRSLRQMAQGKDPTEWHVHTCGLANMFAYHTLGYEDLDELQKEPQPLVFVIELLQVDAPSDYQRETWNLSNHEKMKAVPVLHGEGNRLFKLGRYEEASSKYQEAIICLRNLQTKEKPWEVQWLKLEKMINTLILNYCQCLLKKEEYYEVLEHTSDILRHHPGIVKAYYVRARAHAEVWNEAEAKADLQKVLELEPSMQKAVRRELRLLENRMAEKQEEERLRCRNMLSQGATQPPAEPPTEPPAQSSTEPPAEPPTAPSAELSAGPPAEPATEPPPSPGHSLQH
Nature of the test: Inhibition of GST-tagged human AIPL1 expressed in Escherichia coli BL21 (DE3) using NH2-EDASRMEEVD-COOH peptide as substrate preincubated for 15 mins followed by substrate addition measured after 15 mins by Alpha Screen assay.

The target in test [6] is Peptidyl-prolyl cis-trans isomerase D (Homo sapiens, UniProt Q08752). Nature of the test: Inhibition of GST-tagged human CYP40 expressed in Escherichia coli BL21 (DE3) using NH2-EDASRMEEVD-COOH peptide as substrate preincubated for 15 mins followed by substrate addition measured after 15 mins by Alpha Screen assay.
Peptidyl-prolyl cis-trans isomerase D, sequence (Q08752 whole entry): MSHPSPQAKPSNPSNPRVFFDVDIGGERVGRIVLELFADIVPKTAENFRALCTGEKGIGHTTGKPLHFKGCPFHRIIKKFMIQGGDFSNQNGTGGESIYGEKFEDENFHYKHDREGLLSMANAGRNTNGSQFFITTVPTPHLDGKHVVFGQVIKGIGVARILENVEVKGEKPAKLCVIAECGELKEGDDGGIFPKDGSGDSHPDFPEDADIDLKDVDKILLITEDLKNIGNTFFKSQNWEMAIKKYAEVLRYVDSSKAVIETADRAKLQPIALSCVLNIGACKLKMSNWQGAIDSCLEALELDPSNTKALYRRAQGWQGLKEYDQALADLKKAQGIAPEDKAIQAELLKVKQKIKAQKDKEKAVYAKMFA

For `COC(=O)c1c(NC(=O)CSc2nnc(-c3ccco3)c(-c3ccco3)n2)sc(C)c1C`, the IC50 was determined as 1500 nM in test [1], 2500 nM in test [2] and 5000 nM in test [3]. Moreover, the Kd in test [4] turned out to be 745000 nM.

In the case of `Cc1sc(NC(=O)CCCC(=O)Nc2sc(C)c(C)c2C(N)=O)c(C(N)=O)c1C`, the IC50 worked out at 2000 nM in test [2], 2000 nM in test [5], 1500 nM in test [6] and 1200 nM in test [3].
